Reference: ChEMBL document CHEMBL5055653, “Synthesis, microbiological evaluation and structure activity relationship analysis of linezolid analogues with different C5-acylamino substituents” (2021)
Converted amounts (≈) assume the structure as drawn. The source made the active and inactive calls. No cut-off for these calls is given here.

What was measured:
[1] = system: Staphylococcus aureus; assay: Antibacterial activity against Staphylococcus aureus NCTC 13616 assessed as reduction in bacterial growth incubated for 20 hrs by microplate reader method; assay type: functional
[2] = system: Staphylococcus aureus; assay: Antibacterial activity against Staphylococcus aureus ATCC 9144 assessed as reduction in bacterial growth incubated for 20 hrs by microplate reader method; assay type: functional
[3] = system: Staphylococcus aureus; assay: Antibacterial activity against Staphylococcus aureus USA 300 assessed as reduction in bacterial growth incubated for 20 hrs by microplate reader method; assay type: functional
[4] = system: Staphylococcus aureus; assay: Antibacterial activity against Staphylococcus aureus 1199B assessed as reduction in bacterial growth incubated for 20 hrs by microplate reader method; assay type: functional
[5] = system: Enterococcus faecalis; assay: Antibacterial activity against Vanomycin-sensitive Enterococcus faecalis NCTC 775 assessed as reduction in bacterial growth incubated for 20 hrs by microplate reader method; assay type: functional
[6] = system: Enterococcus faecalis; assay: Antibacterial activity against Vanomycin-resistant Enterococcus faecalis NCTC 12201 assessed as reduction in bacterial growth incubated for 20 hrs by microplate reader method; assay type: functional
[7] = system: Enterococcus faecium; assay: Antibacterial activity against Vanomycin-resistant Enterococcus faecium NCTC 12204 assessed as reduction in bacterial growth incubated for 20 hrs by microplate reader method; assay type: functional
[8] = system: Acinetobacter baumannii; assay: Antibacterial activity against Acinetobacter baumannii AYE assessed as reduction in bacterial growth incubated for 20 hrs in presence of PMBN by microplate reader method; assay type: functional, organism-based
[9] = system: Acinetobacter baumannii; assay: Antibacterial activity against Acinetobacter baumannii ATCC 17978 assessed as reduction in bacterial growth incubated for 20 hrs in presence of PMBN by microplate reader method; assay type: functional, organism-based
[10] = system: Pseudomonas aeruginosa; assay: Antibacterial activity against Pseudomonas aeruginosa PAO1 assessed as reduction in bacterial growth incubated for 20 hrs in presence of PMBN by microplate reader method; assay type: functional
[11] = system: Pseudomonas aeruginosa; assay: Antibacterial activity against Pseudomonas aeruginosa NCTC 13437 assessed as reduction in bacterial growth incubated for 20 hrs in presence of PMBN by microplate reader method; assay type: functional, organism-based
[12] = system: Escherichia coli; assay: Antibacterial activity against Escherichia coli NCTC 12923 assessed as reduction in bacterial growth incubated for 20 hrs in presence of PMBN by microplate reader method; assay type: functional, organism-based

| Structure (SMILES) | MIC [1] [µg/mL] | MIC [2] [µg/mL] | MIC [3] [µg/mL] | MIC [4] [µg/mL] | MIC [5] [µg/mL] | MIC [6] [µg/mL] | MIC [7] [µg/mL] | Activity [8] | Activity [9] | MIC [10] [µg/mL] | Activity [11] | Activity [12] | Activity [10] |
| --- | --- | --- | --- | --- | --- | --- | --- | --- | --- | --- | --- | --- | --- |
| NCCC(=O)NC[C@H]1CN(c2ccc(N3CCOCC3)c(F)c2)C(=O)O1 | > 128 | > 128 | > 128 | > 128 | > 128 | 128 (≈ 349 µM) | 16 (≈ 43.7 µM) |  |  |  |  |  |  |
| O=C(NC[C@H]1CN(c2ccc(N3CCOCC3)c(F)c2)C(=O)O1)C1CC=CC1 | 16 (≈ 41.1 µM) | 16 (≈ 41.1 µM) | 16 (≈ 41.1 µM) | 8 (≈ 20.5 µM) | 16 (≈ 41.1 µM) | 8 (≈ 20.5 µM) | 16 (≈ 41.1 µM) |  |  |  |  |  |  |
| O=C(NC[C@H]1CN(c2ccc(N3CCOCC3)c(F)c2)C(=O)O1)c1cnccn1 | 64 (≈ 159 µM) | 64 (≈ 159 µM) | 64 (≈ 159 µM) | 32 (≈ 79.7 µM) | 64 (≈ 159 µM) | 64 (≈ 159 µM) | 64 (≈ 159 µM) |  |  |  |  |  |  |
| O=C(NC[C@H]1CN(c2ccc(N3CCOCC3)c(F)c2)C(=O)O1)C1CCCS1 (stereo not given in full) | 32 (≈ 78.1 µM) | 64 (≈ 156 µM) | 32 (≈ 78.1 µM) | 32 (≈ 78.1 µM) | 32 (≈ 78.1 µM) | 32 (≈ 78.1 µM) | 32 (≈ 78.1 µM) |  |  |  |  |  |  |
| NCC(=O)NC[C@H]1CN(c2ccc(N3CCOCC3)c(F)c2)C(=O)O1 | > 128 | > 128 | > 128 | > 128 | 64 (≈ 182 µM) | 64 (≈ 182 µM) | 32 (≈ 90.8 µM) |  |  |  |  |  |  |
| CCCC(=O)NC[C@H]1CN(c2ccc(N3CCOCC3)c(F)c2)C(=O)O1 | 8 (≈ 21.9 µM) | 8 (≈ 21.9 µM) | 16 (≈ 43.8 µM) | 8 (≈ 21.9 µM) | 8 (≈ 21.9 µM) | 8 (≈ 21.9 µM) | 8 (≈ 21.9 µM) |  |  |  |  |  |  |
| O=C(NC[C@H]1CN(c2ccc(N3CCOCC3)c(F)c2)C(=O)O1)c1ccccc1 | 32 (≈ 80.1 µM) | 64 (≈ 160 µM) | 32 (≈ 80.1 µM) | 16 (≈ 40.1 µM) | 32 (≈ 80.1 µM) | 16 (≈ 40.1 µM) | 16 (≈ 40.1 µM) |  |  |  |  |  |  |
| O=C(NC[C@H]1CN(c2ccc(N3CCOCC3)c(F)c2)C(=O)O1)c1cccs1 | 16 (≈ 39.5 µM) | 16 (≈ 39.5 µM) | 16 (≈ 39.5 µM) | 8 (≈ 19.7 µM) | 16 (≈ 39.5 µM) | 8 (≈ 19.7 µM) | 8 (≈ 19.7 µM) | inactive | inactive | 16 | inactive | inactive |  |
| CCC(=O)NC[C@H]1CN(c2ccc(N3CCOCC3)c(F)c2)C(=O)O1 | 4 (≈ 11.4 µM) | 8 (≈ 22.8 µM) | 8 (≈ 22.8 µM) | 4 (≈ 11.4 µM) | 4 (≈ 11.4 µM) | 4 (≈ 11.4 µM) | 4 (≈ 11.4 µM) |  |  |  |  |  |  |
| O=C(Cc1nnn[nH]1)NC[C@H]1CN(c2ccc(N3CCNCC3)c(F)c2)C(=O)O1 | > 128 | > 128 | > 128 | > 128 | > 128 | > 128 | > 128 |  |  |  |  |  |  |
| CN1CCC(C(=O)NC[C@H]2CN(c3ccc(N4CCOCC4)c(F)c3)C(=O)O2)C1 (stereo not given in full) | > 128 | > 128 | > 128 | > 128 | > 128 | > 128 | > 128 |  |  |  |  |  |  |
| O=C(NC[C@H]1CN(c2ccc(N3CCOCC3)c(F)c2)C(=O)O1)c1cnco1 | 128 (≈ 328 µM) | 128 (≈ 328 µM) | > 128 | 128 (≈ 328 µM) | 64 (≈ 164 µM) | 128 (≈ 328 µM) | 128 (≈ 328 µM) | inactive | inactive |  | inactive | inactive | inactive |
| O=C(NC[C@H]1CN(c2ccc(N3CCOCC3)c(F)c2)C(=O)O1)C1CCC1 | 8 (≈ 21.2 µM) | 16 (≈ 42.4 µM) | 16 (≈ 42.4 µM) | 8 (≈ 21.2 µM) | 16 (≈ 42.4 µM) | 8 (≈ 21.2 µM) | 8 (≈ 21.2 µM) |  |  |  |  |  |  |
| Cc1ccc(CC(=O)NC[C@H]2CN(c3ccc(N4CCOCC4)c(F)c3)C(=O)O2)cc1 | 64 (≈ 150 µM) | 128 (≈ 299 µM) | 128 (≈ 299 µM) | 64 (≈ 150 µM) | 64 (≈ 150 µM) | 16 (≈ 37.4 µM) | 16 (≈ 37.4 µM) |  |  |  |  |  |  |
| O=C(NC[C@H]1CN(c2ccc(N3CCOCC3)c(F)c2)C(=O)O1)[C@@H]1CCNC1 | > 128 | > 128 | > 128 | > 128 | > 128 | > 128 | > 128 | inactive | inactive |  | inactive | inactive | inactive |
